# Key:
# MET = MET biochemical kinase assay; design: species or system human; concentration or dose not given beside the values
# How it was run: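 Lysate-derived MET, or chimeric receptors, is immobilised on plates through an antibody to the human MET cytoplasmic region. Compounds are added along with kinase buffer supplying ATP and divalent metal ions, and receptor autophosphorylation is quantified by anti-phosphotyrosine ELISA.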
# FLK-1 receptor = molecular target: T1, FLK-1 receptor (Mus musculus, UniProt P35918); assay: FLK-1 ELISA (kinase activity of the FLK-1 receptor in FLK-1/NIH3T3 cells, VEGF stimulated); type: cell-based
# T1 construct: expressed in transfected cells; host or cells: NIH3T3 C7#3
# How it was run: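 FLK-1-expressing NIH3T3 C7#3 cells, starved overnight in 0.1% FBS medium, were treated with compounds at a 1:200 final dilution (0.5% DMSO) for 2 h at 37 °C, with VEGF stimulation. FLK-1 kinase activity was read by ELISA on anti-rabbit IgG plates using affinity-purified anti-FLK-1 antiserum.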
# T1 sequence (P35918 20-1345): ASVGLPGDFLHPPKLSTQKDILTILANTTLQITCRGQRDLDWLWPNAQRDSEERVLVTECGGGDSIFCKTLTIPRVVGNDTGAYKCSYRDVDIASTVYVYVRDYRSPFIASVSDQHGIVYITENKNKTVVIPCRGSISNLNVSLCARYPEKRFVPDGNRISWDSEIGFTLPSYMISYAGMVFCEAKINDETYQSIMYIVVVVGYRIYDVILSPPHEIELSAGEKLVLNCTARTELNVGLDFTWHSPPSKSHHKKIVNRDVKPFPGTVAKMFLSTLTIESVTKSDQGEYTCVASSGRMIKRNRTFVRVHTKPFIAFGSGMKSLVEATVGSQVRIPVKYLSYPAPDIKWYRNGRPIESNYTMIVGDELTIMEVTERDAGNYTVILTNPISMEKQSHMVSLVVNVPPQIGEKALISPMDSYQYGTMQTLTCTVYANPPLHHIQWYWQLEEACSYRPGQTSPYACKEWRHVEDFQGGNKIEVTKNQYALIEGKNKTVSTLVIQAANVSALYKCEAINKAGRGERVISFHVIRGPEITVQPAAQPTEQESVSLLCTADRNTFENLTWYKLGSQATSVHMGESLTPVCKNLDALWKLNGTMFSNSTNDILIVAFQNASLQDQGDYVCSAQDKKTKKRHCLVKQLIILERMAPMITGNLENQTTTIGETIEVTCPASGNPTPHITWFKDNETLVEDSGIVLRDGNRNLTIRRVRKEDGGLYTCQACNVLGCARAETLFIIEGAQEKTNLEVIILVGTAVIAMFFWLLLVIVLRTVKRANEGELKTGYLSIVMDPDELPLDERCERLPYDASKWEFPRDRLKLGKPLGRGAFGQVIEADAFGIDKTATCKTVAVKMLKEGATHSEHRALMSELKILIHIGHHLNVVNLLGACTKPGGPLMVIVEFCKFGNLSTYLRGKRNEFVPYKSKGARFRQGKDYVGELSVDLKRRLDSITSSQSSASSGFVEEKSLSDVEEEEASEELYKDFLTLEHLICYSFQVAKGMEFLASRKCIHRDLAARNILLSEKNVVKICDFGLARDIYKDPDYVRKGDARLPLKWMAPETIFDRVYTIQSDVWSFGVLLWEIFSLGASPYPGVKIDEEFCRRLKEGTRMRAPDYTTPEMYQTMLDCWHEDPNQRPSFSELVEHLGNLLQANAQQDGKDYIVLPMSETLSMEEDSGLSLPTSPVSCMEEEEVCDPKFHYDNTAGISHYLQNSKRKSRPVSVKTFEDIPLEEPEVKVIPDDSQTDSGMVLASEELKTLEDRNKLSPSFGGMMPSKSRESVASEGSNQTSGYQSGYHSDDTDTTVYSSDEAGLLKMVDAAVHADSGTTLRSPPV
Compound,Met Kinase % Inhibition (MET),Fik Kinase %Inhibition (FLK-1 receptor)
CN(C)c1ccc(C=C2C(=O)Nc3ccc(S(=O)(=O)N4CCOCC4)cc32)cc1 [10719/F08],75.7%,15.1%
Cc1c(Br)ccc2c1C(=Cc1ccccc1O)C(=O)N2 [10720/C05],72.5%,-36.1%
CSc1ccc(C=C2C(=O)Nc3ccc(Br)c(C)c32)s1 [10720/C07],26.7%,20.7%
CCOc1cc(C=C2C(=O)Nc3ccc(I)cc32)ccc1O [10720/B09],57.4%,10.1%
COc1cc(OC)c(C=C2C(=O)Nc3ccc(S(=O)(=O)N4CCOCC4)cc32)c(OC)c1 [10719/F06],-22.0%,13.5%
O=C1Nc2ccc(I)cc2C1=Cc1ccccc1O [10720/B05],51.8%,11.6%
O=C1Nc2ccc(S(=O)(=O)N3CCOCC3)cc2C1=Cc1cccc([N+](=O)[O-])c1 [10719/F10],30.8%,10.4%
CNS(=O)(=O)c1ccc2c(c1)C(=Cc1ccc(N(C)C)cc1)C(=O)N2 [10719/D08],45.2%,8.2%
CCOc1ccccc1C=C1C(=O)Nc2ccc(Br)c(C)c21 [10717/C02],29.7%,4.1%
O=C1Nc2ccc(S(=O)(=O)N3CCOCC3)cc2C1=Cc1ccc(F)cc1Cl [10719/F09],19.2%,-6.5%
COc1cc(OC)c(C=C2C(=O)Nc3ccc(CCCl)cc32)c(OC)c1 [10719/G06],-18.1%,23.2%
CNS(=O)(=O)c1ccc2c(c1)C(=Cc1c(F)cc(F)cc1F)C(=O)N2 [10720/D02],17.8%,12.1%
O=C1Nc2ccc(CCCl)cc2C1=Cc1ccc(O)cc1 [10719/G07],24.0%,20.1%
O=C1Nc2ccc(S(=O)(=O)Nc3ccc(C(F)(F)F)cc3)cc2C1=Cc1ccc(F)cc1Cl [10719/E09],36.1%,13.5%
O=C1Nc2ccc(CCCl)cc2C1=Cc1ccc(F)cc1C(F)(F)F [10719/G11],24.0%,6.9%
CCc1c(C)[nH]c(C=C2C(=O)Nc3ccc(S(=O)(=O)Nc4ccc(C(F)(F)F)cc4)cc32)c1C [10719/E05],39.0%,21.5%
O=C1Nc2ccc(S(=O)(=O)Nc3ccc(C(F)(F)F)cc3)cc2C1=Cc1ccc(O)c(O)c1 [10719/E03],87.2%,17.1%
CCOc1ccc(C=C2C(=O)Nc3ccc(S(=O)(=O)Nc4ccc(C(F)(F)F)cc4)cc32)cc1OC [10719/E02],35.7%,26.1%
COc1cc(O)ccc1C=C1C(=O)Nc2ccc(Br)c(C)c21 [10720/C03],50.3%,15.1%
O=C1Nc2ccc(I)cc2C1=Cc1ncc[nH]1 [10720/B11],42.1%,-20.3%

Compound,Met Kinase % Inhibition (MET),Fik Kinase %Inhibition (FLK-1 receptor)
O=C1Nc2ccc(S(=O)(=O)Nc3ccc(C(F)(F)F)cc3)cc2C1=Cc1ccc(O)cc1 [10719/E07],55.5%,26.7%
O=C1Nc2ccc(I)cc2C1=Cc1ccc(Br)cc1 [10717/B08],88.8%,-0.9%
O=C1Nc2ccc(I)cc2C1=Cc1c(F)cc(F)cc1F [10720/B02],38.8%,6.5%
Cc1c(Br)ccc2c1C(=Cc1ccc(F)cc1C(F)(F)F)C(=O)N2 [10719/C11],-5.1%,9.9%
CNS(=O)(=O)c1ccc2c(c1)C(=Cc1ccc(O)cc1)C(=O)N2 [10719/D07],41.5%,-123.5%
Cc1c(Br)ccc2c1C(=Cc1cccc([N+](=O)[O-])c1)C(=O)N2 [10719/C10],7.9%,11.8%
CSc1ccc(C=C2C(=O)Nc3c(Br)cc(Br)cc32)s1 [10720/A07],57.2%,6.6%
CCOc1cc(C=C2C(=O)Nc3ccc(Br)c(C)c32)ccc1O [10720/C09],47.5%,12.1%
O=C1Nc2ccc(S(=O)(=O)N3CCOCC3)cc2C1=Cc1ccc(O)cc1 [10719/F07],36.7%,18.7%
COc1ccc(C=C2C(=O)Nc3ccc(I)cc32)cc1OC [10720/B04],61.8%,9.8%
O=C1Nc2c(Br)cc(Br)cc2C1=Cc1ccccc1O [10720/A05],43.4%,8.0%
CNS(=O)(=O)c1ccc2c(c1)C(=Cc1c(OC)cc(OC)cc1OC)C(=O)N2 [10719/D06],11.2%,25.8%
O=C1Nc2ccc(S(=O)(=O)Nc3ccc(C(F)(F)F)cc3)cc2C1=Cc1cccc([N+](=O)[O-])c1 [10719/E10],40.2%,17.6%
CCc1c(C)[nH]c(C=C2C(=O)Nc3ccc(S(=O)(=O)NC)cc32)c1C [10719/D05],71.8%,16.3%
CCOc1cc(C=C2C(=O)Nc3c(Br)cc(Br)cc32)ccc1O [10720/A09],75.4%,8.1%
Cc1cc(O)cc(O)c1C=C1C(=O)Nc2ccc(I)cc21 [10720/B08],27.7%,3.6%
COc1ccc(C=C2C(=O)Nc3ccc(S(=O)(=O)Nc4ccc(C(F)(F)F)cc4)cc32)c(OC)c1 [10719/E04],3.1%,31.2%
O=C1Nc2ccc(I)cc2C1=Cc1ccc[nH]1 [10717/B09],88.8%,-40.7%
COc1ccc(O)c(C=C2C(=O)Nc3ccc(Br)c(C)c32)c1 [10720/C10],62.6%,-21.1%
COc1cc(O)ccc1C=C1C(=O)Nc2c(Br)cc(Br)cc21 [10720/A03],58.2%,17.7%

# — patent EP1247803A2, “Indolinone compounds suitable for modulation of protein kinases” (Sugen, Inc., priority 1996, dated 1998)
